Experimental data as given in EPA's ToxValDB 9.5 (doi:10.2903/j.efsa.2014.3691).
Where “and” joins values, the source holds several entries; their conditions need not be identical. Identical values can stand only once.

Assays:
[1] = test system: Anas platyrhynchos; conditions: short-term; oral; feed; mortality
[2] = test system: Apis mellifera; conditions: acute, duration: 48 hours, mortality
[3] = test system: Colinus virginianus
[4] = test system: Daphnia magna; conditions: chronic/long-term; duration: 22 days; reproduction
[5] = test system: Lepomis macrochirus; conditions: acute; duration: 96 hours; mortality
[6] = test system: Oncorhynchus mykiss
[7] = test system: Rattus norvegicus
[8] = test system: Tagia sp.; conditions: acute; duration: 14 days; mortality
[9] = test system: Typhlodromus pyri; conditions: chronic/long-term; duration: 14 days; reproduction

CSC(=O)c1cccc2nnsc12 [Acibenzolar-S-methyl]
LC50 [1]: > 1540 mg/kg-day
LD50 ([2]; dermal): > 100 µg/piece
LD50 ([2]; oral, unspecified): 128 µg/piece
LD50 ([3]; acute, oral, mortality): > 2000 mg/kg
NOEC ([3]; reproduction developmental, reproduction): 61 mg/kg-day
NOEC [4]: 44 µg/L
LC50 [5]: 2.8 µg/mL and 1.6 µg/mL
LC50 ([6]; acute, duration: 96 hours, mortality): 0.4 µg/mL and 1.1 µg/mL and 0.88 µg/mL
NOEC ([6]; chronic/long-term, duration: 87 days): 26 µg/L
LD50 ([7]; acute, oral, mortality): > 2000 mg/kg
LOAEL ([7]; reproduction developmental, body weight): 10 mg/kg-day
NOAEL ([7]; reproduction developmental, oral, diet): 15 mg/kg-day
LC50 [8]: > 500 mg/kg
LEL [9]: 30 g/ha
